Reference: publication PMC2743695 (BMC Structural Biology, 2009)

Molecular target: AlrBax (Dal1, alanine racemase from Bacillus anthracis Ames) (Bacillus anthracis, UniProt A0A6L7HC45)
Conditions: covalent (internal aldimine with Lys41); pH 6.5; chloride ion and acetate in active site

AlrBax (Dal1, alanine racemase from Bacillus anthracis Ames), sequence (A0A6L7HC45 1-389 limits assumed): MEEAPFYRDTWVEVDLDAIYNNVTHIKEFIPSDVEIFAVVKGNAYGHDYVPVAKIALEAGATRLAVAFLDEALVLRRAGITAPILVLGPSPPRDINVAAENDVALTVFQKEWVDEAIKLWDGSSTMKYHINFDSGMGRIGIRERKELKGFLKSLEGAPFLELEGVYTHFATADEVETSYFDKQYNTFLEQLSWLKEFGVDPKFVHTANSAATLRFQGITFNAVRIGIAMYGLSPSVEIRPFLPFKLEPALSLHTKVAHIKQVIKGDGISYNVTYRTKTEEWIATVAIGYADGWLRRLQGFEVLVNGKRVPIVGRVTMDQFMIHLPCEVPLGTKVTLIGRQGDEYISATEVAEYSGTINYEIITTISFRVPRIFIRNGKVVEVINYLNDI

Compound: Cc1ncc(COP(=O)(O)O)c(C=O)c1O [PLP]
- X-ray crystal structure, 1.95 Å: In the AlrBax structure, Lys41 is seen covalently linked to the PLP cofactor
